Measured values taken from patent US20180217129A1, “A Method Of Assessing Protein Modification Status And Identifying Biomarkers Linked To Cell Signaling Pathways” (Queen Mary University of London, priority 2015, published 2018).
Where two headings read alike, the source gives them in different places.

Key:
MCF7 cells = experiment: Growth factor stimulation phosphoproteomics (CTAM group dynamics, KSEA); assay type: cell-based, human; settings: stimulation for 5 min, relative to 0 minute control
Protocol: Cells were split and seeded at 4×10^5 cells·plate^−1, 72 hours prior to the experiment. The medium in each plate was replaced 24 hours prior to the experiment. Each experiment was performed in biological duplicate. For the network definition experiments, cells were treated with each of the inhibitors or vehicle (DMSO) for 1 hour (Table 1). For the growth factor stimulation experiments, cells were starved for 24h and were subsequently treated with either 50 ng·mL^−1 EGF or IGF for 0, 5, 10, 30, or 60 minutes. For the resistant cell-line experiments, no additional treatments were performed. […]
The abundance of each of the identified markers was monitored systematically using KSEA (kinase-substrate enrichment analysis), as described previously (1). […] The mean of the log2 fold-ratios (versus control) of the phosphorylation sites representing each CTAM group were then calculated alongside the standard deviation (δ) for each mean. The significance of enrichment was then determined using a Z-score based approach and expressed as P-values, using the following formula: Z=(Sm−μt)·m^1/2/δt; where Sm=mean of the CTAM group log2 fold-ratios; μt=mean of the total dataset log2 ratios; m=number of individual phosphopeptides within the CTAM group; and δt=standard deviation of the total dataset log2 ratios (vs control) (19). […]

off-targets (ChEMBL) = settings: cited from earlier work
[1] = tested on: off-target kinases (MRC database); settings: cited from earlier work
parental MCF7 cells = experiment: Cell proliferation assay (cell counting), parental cells; assay type: cell-based, human; settings: 1 μM of inhibitor
Protocol: (§1) Parental MCF7, G1:3 and K1:3 cell-lines were seeded in 12-well plates at a density of approximately 80,000 cells·well^−1, in biological triplicate. After the indicated time period, cells were washed with PBS, trypsinized and counted using a Beckman Coulter Vi-CELL XR cell counter. Second-order polynomials where fitted to the data using the ggplot2 package (v0.9.3.1) within R (v3.0.0).

[2] = tested on: MCF7-G and MCF7-K resistant cells; experiment: Cell proliferation assay (cell counting), resistant cells; assay type: cell-based, human; settings: resistant cell-lines (MCF7-G for GDC-0941, MCF7-K for KU-0063794), 1 μM of inhibitor
Protocol: MCF7 cells (identity confirmed by genotyping analysis) were routinely maintained in DMEM (supplemented with 10% fetal-bovine serum and 100 U·mL^−1 penicillin/streptomycin) at 37° C. in a humidified atmosphere at 5% CO2. Resistant MCF7 cell-lines, derived from the original parental cells, were obtained by gradually increasing the concentrations of GDC-0941 or KU-0063794 concentrations (starting at 100 nM up to a maximum of 1 μM) over a period of approximately six months. The resultant clones (MCF7-G1:G3 and MCF7-K1:K3) were then routinely maintained as above in the presence of either 1 μM GDC-0941 or KU-0063794 (in DMSO) for MCF7-G and MCF7-K cells, respectively.
as §1

## IGF-1: Human recombinant IGF-1 (100-11) purchased from Peprotech
MCF7 cells
  EGFR-MEK CTAM group phosphorylation: significant, acute up-regulation

## C[C@@H](N)[C@H]1CC[C@H](C(=O)Nc2ccncc2)CC1 [Y-27632]
off-targets (ChEMBL)
  Off-targets from ChEMBL: PKCε
[1]; 1 μM
  Off-targets from MRC database (>50% inhibition at given concentration): PHK and MST2 and RSK2 and MSK1 and MNK1 and RSK1 and AMPK and PRK2

## Cn1c2ccccc2c2c3c(c4c5ccccc5n(CCC#N)c4c21)CNC3=O [Go-6976]
off-targets (ChEMBL)
  Off-targets from ChEMBL: PKD1

## O=c1[nH]c2ccccc2n1C1CCN(Cc2ccc(-c3nc4cc5[nH]cnc5cc4nc3-c3ccccc3)cc2)CC1 [Akt inhibitor VIII]
[1]; 1 μM
  Off-targets from MRC database (>50% inhibition at given concentration): CAMK1 (1 μM)

## CS(=O)(=O)N1CCN(Cc2cc3nc(-c4cccc5[nH]ncc45)nc(N4CCOCC4)c3s2)CC1 [GDC-0941]
Parental MCF7 cells
  proliferation in the presence of inhibitor: unable to do so
[1]; 1 μM
  Off-targets from MRC database (>50% inhibition at given concentration): CLK2 (1 μM)
[2]
  proliferation in the presence of inhibitor: able to proliferate

## CCc1cncnc1N1CCN(Cc2nc3ccc(C(F)(F)F)cc3[nH]2)CC1 [PF-4708671]
[1]; 1 μM
  Off-targets from MRC database (>50% inhibition at given concentration): MSK1 and RSK1

## C=CC(=O)Nc1ccc2ncnc(Nc3cccc(Br)c3)c2c1 [PD-168393]
off-targets (ChEMBL)
  Off-targets from ChEMBL: ERBB2/4, and BMX and BTK and BLK and JAK3

## Oc1cccc(-c2nc(N3CCOCC3)c3oc4ncccc4c3n2)c1 [PI-103]
off-targets (ChEMBL)
  Off-targets from ChEMBL: mTOR, and DNA-PK, and Akt1

## CN([C@@H](Cc1ccc(OS(=O)(=O)c2cccc3cnccc23)cc1)C(=O)N1CCN(c2ccccc2)CC1)S(=O)(=O)c1cccc2cnccc12 [KN-62, 1-N,O-bis(5-isoquinolinesulfonyl)-N-methyl-L-tyrosyl-4-phenylpiperazin E]
off-targets (ChEMBL)
  Off-targets from ChEMBL: P2RX7
[1]; 10 μM
  Off-targets from MRC database (>50% inhibition at given concentration): PRAK and CAMK1 and DYRK1A and Lck

## N#CC(=C(/N)Sc1ccccc1N)/C(C#N)=C(\N)Sc1ccccc1N [U0126]
[1]; 10 μM
  Off-targets from MRC database (>50% inhibition at given concentration): MKK1 (10 μM)

## CN(C)CCCn1cc(C2=C(c3c[nH]c4ccccc34)C(=O)NC2=O)c2ccccc21 [Bisindolylmaleimide-I]
off-targets (ChEMBL)
  Off-targets from ChEMBL: CDK4/CCND1, and GSK3β, and PIM1

## Cc1cncc2cccc(S(=O)(=O)N3CCCNC[C@@H]3C)c12 [H-1152]
off-targets (ChEMBL)
  Off-targets from ChEMBL: PKA

## COc1ccc(S(=O)(=O)N(CCO)c2ccccc2CN(C)C/C=C/c2ccc(Cl)cc2)cc1 [KN-93]
[1]; 10 μM
  Off-targets from MRC database (>50% inhibition at given concentration): TrkA and smMLCK

## COc1ccc(-c2ccc3c(N4CCOCC4)nc(N4C[C@@H](C)O[C@@H](C)C4)nc3n2)cc1CO [KU-0063794]
Parental MCF7 cells
  proliferation in the presence of inhibitor: unable to do so
[2]
  proliferation in the presence of inhibitor: able to proliferate

## Nc1[nH]nc2nnc(-c3c(-c4ccccc4)nn4ccccc34)cc12 [ERK inhibitor II]
off-targets (ChEMBL)
  Off-targets from ChEMBL: MAPK14
